Data reported in patent US20250388592A1 (REMYND N.V., priority 2022, published 2025).

Tested on: M17_3TAU(P301L) cells
Test: TAU-induced cytotoxicity (LDH) in the neuroblastoma tauopathy model
Assay type: cell-based
Details: Homo sapiens, 168 h, inhibition of TAU-induced toxicity, 7 days retinoic acid differentiation, LDH readout
Text: A TAU expression plasmid was constructed by sub-cloning the cDNA encoding for human TAU-P301L protein, wherein proline at position 301 is substituted by a leucine residue, into mammalian expression vector pcDNA3.1 resulting in the plasmid pcDNA3.1-TAUP301L. Plasmids pcDNA3.1 and pcDNA3.1-TAU P301L were transfected into human neuroblastoma cells (BE-M17; ATCC No. CRL-2267™) using lipofectamine reagent and subsequently, independent clonal cell lines with the plasmids stably integrated into the genome were selected by antibiotic resistance selection (Geneticin (G418)), resulting in cell lines M17.pcDNA3 and M17_3TAUP301L. Expression of the TAUP301 L gene in the M17_3TAUP301 L cells was confirmed by Western blot analysis.
Differentiation of the cells with RA leads to phosphorylation and subsequent aggregation of TAU, inducing a tauopathy in these cells. Cytotoxicity of cells was measured by quantification of lactate dehydrogenase (LDH) levels. In dead cells LDH is leaked out of the cells into the medium due to a loss of plasma-membrane integrity.
Briefly, 3 days preceding the experiment pre-cultures of M17.pcDNA3 and M17_3TAU(P301L) cells were prepared, starting from a stock culture, at a density of 50.000-100.000 cells/cm2 in detection medium (Optimem Reduced Serum without phenol red (Gibco, Cat. 31985-047) supplemented with 1% fetal calf serum (FCS), 1 mM sodium pyruvate, 1×non-essential amino acids (NEAA), 500 μg/ml G418 and 0.5×antibiotic/antimycotic (ABAM)). At the day of the experiment these precultures were diluted to ˜[…] in detection medium without FCS and 60 μL of this suspension is dispensed per well into a 96-well microtiter plate. After 3 hours of incubation at 37° C./5% C02 an equal volume of detection medium containing 2.5 μM RA was added and subsequently incubated for 7 days at 37° C./5% CO2. After 7 days, LDH activity was determined using the Promega Cytotox 96 Non-Radioactive cytotoxicity assay (Cat. G1780), according the manufacturer's instructions. Cytotoxicity is measured as the ratio of LDH increase in the supernatant divided by the LDH increase in the total cell suspension (sum of the LDH measured in cells and supernatant). Toxicity was determined after 7 days of differentiation with retinoic acid in M17_3TAU(P301 L) cells compared to M17.pcDNA3 cells.
The M17_3TAU(P301L) cell line makes it possible to assess the ability of novel compounds to inhibit TAU-induced cytotoxicity. […] Compounds were tested for their ability to hamper TAU-induced toxicity at different concentrations, ranging from low non-effective concentrations to high potent concentrations. Afterwards, the dose-dependent inhibition curve was used to calculate their EC50 (Table 3B).

Compared with Cc1cccnc1CN1CC2(C1)CN(C(=O)Nc1ccc(Cl)cc1)C2 [Cpd B179], COc1ccc(CNC(=O)N2CC3(CN(Cc4ncccc4C)C3)C2)cc1 [Cpd B180] is lower in EC50: 16.1 nM for the first, less than 0.19 nM for the second. The second is the more potent here.

Compared with Cc1cccnc1CN1CC2(C1)CN(C(=O)NC1CCC(F)(F)CC1)C2 [Cpd B171], Cc1cccnc1CN1CC2(C1)CN(C(=O)NC1CC(F)(F)C1)C2 [Cpd B170] is 44-fold higher in EC50: 77.8 nM for the first, 3440 nM for the second. The first is the more potent here.

First: Clc1ccc(Cc2nsc(NC3CC4(CC(NCc5ccc(Cl)cc5Cl)C4)C3)n2)cc1 (stereo not drawn) [Cpd B307, N-(3-(4-chlorobenzyl)-1,2,4-thiadiazol-5-yl)-N′-(2,4-dichlorobenzyl) spiro[3.3]heptane-2,6-diamine]
Second: Clc1ccc(CNC2CC3(C2)CC(Nc2nc(Cc4ccc(Cl)cc4)ns2)C3)cc1 (stereo not drawn) [Cpd B303, N-(4-chlorobenzyl)-N′-(3-(4-chlorobenzyl)-1,2,4-thiadiazol-5-yl) spiro[3.3]heptane-2,6-diamine]
The EC50 of the first is 9.1-fold lower: 1.3 nM for the first, 11.8 nM for the second. The first is the more potent here.

Going from O=C(Nc1cccc(Cl)c1)N1CC2(CN(Cc3ccc(F)cc3)C2)C1 [Cpd B466] to O=C(Nc1cccc(C(F)(F)F)c1)N1CC2(CN(Cc3ccc(F)cc3)C2)C1 [Cpd B189], the EC50 falls from 18.6 nM to 10.6 nM (1.8-fold). The second is the more potent here.

First: O=C(Cc1ccc(Cl)cc1)N1CC2(CN(Cc3cscn3)C2)C1 [Cpd B043, 2-(4-chlorophenyl)-1-(6-(thiazol-4-ylmethyl)-2,6-diazaspiro[3.3]heptan-2-yl)ethanone]
Second: CC(C)CCN1CC2(C1)CN(C(=O)Cc1ccc(Cl)cc1)C2 [Cpd B053, 2-(4-chlorophenyl)-1-(6-isopentyl-2,6-diazaspiro[3.3]heptan-2-yl)ethanone]
The EC50 of the first is 16-fold higher: 79.5 nM for the first, 5.07 nM for the second.

First: Cc1ccc(CCN2CC3(C2)CN(C(=O)Cc2ccc(Cl)cc2)C3)cc1 [Cpd B047, 2-(4-chlorophenyl)-1-(6-(4-methylphenethyl)-2,6-diazaspiro[3.3]heptan-2-yl)ethanone]
Second: O=C(Cc1ccc(Cl)cc1)N1CC2(CN(CCc3ccc(F)cc3)C2)C1 [Cpd B048, 2-(4-chlorophenyl)-1-(6-(4-fluorophenethyl)-2,6-diazaspiro[3.3]heptan-2-yl)ethanone]
The EC50 of the first is 1.5-fold higher: 13.6 nM for the first, 8.85 nM for the second.

Compared with Cc1ccc(CN2CC3(C2)CN(C(=O)NCc2ccc(F)cc2)C3)[nH]1 [Cpd B421], Cc1ncc(CN2CC3(C2)CN(C(=O)NCc2ccc(F)cc2)C3)s1 [Cpd B417] is 1.7-fold higher in EC50: 981 nM for the first, 1690 nM for the second. The first is the more potent here.

COc1cccc(CN2CC3(C2)CN(S(=O)(=O)Cc2ccc(C(F)(F)F)cc2)C3)c1 [Cpd B224] and O=S(=O)(Cc1cccc(Cl)c1)N1CC2(CN(Cc3ccc(F)cc3)C2)C1 [Cpd B218] are within 1.5-fold of each other in EC50: 12.2 nM for the first, 16.8 nM for the second.

Compared with O=C(Cc1ccccn1)N1CC2(CN(Cc3ccc(F)cc3)C2)C1 [Cpd B414], O=C(Cc1ccc(F)cc1)N1CC2(CN(Cc3ccccn3)C2)C1 [Cpd B010, 2-(4-Fluoro-phenyl)-1-(6-pyridin-2-ylmethyl-2,6-diaza-spiro[3.3]hept-2-yl)-ethanone] is 57-fold lower in EC50: 2710 nM for the first, 47.5 nM for the second. The second is the more potent here.

Compared with O=C(Cc1ccccc1O)N1CC2(CN(Cc3ccc(F)cc3)C2)C1 [Cpd B423], O=C(Cc1ccc(F)cc1)N1CC2(CN(Cc3ccccc3OC(F)(F)F)C2)C1 [Cpd B013, 2-(4-Fluoro-phenyl)-1-[6-(2-trifluoromethoxy-benzyl)-2,6-diaza-spiro[3.3]hept-2-yl]-ethanone] is 160-fold lower in EC50: 972 nM for the first, 6.27 nM for the second. The second is the more potent here.

Going from COc1cccc(CN2CC3(C2)CN(C(=O)Cc2ccc(F)cc2)C3)c1 [Cpd B008, 2-(4-Fluoro-phenyl)-1-[6-(3-methoxy-benzyl)-2,6-diaza-spiro[3.3]hept-2-yl]-ethanone] to COc1ccc(CCN2CC3(C2)CN(C(=O)Cc2ccc(F)cc2)C3)cc1 [Cpd B025, 2-(4-Fluoro-phenyl)-1-{6-[2-(4-methoxy-phenyl)-ethyl]-2,6-diaza-spiro[3.3]hept-2-yl}-ethanone], the EC50 rises from 4 nM to 17.9 nM (4.5-fold).

Compared with O=C(NC1CCCCC1)N1CC2(CN(Cc3ccc(F)cc3)C2)C1 [Cpd B454], O=C(CCC1CCCCC1)N1CC2(CN(Cc3ccc(F)cc3)C2)C1 [Cpd B089] is 26-fold lower in EC50: 76.6 nM for the first, 2.93 nM for the second. The second is the more potent here.

Going from COc1ccc(CCN2CC3(C2)CN(C(=O)Cc2ccc(Cl)cc2)C3)cc1 [Cpd B046, 2-(4-chlorophenyl)-1-(6-(4-methoxyphenethyl)-2,6-diazaspiro[3.3]heptan-2-yl)ethanone] to O=C(Cc1ccc(F)cc1)N1CC2(CN(CCc3ccccc3)C2)C1 [Cpd B030, 2-(4-Fluoro-phenyl)-1-(6-phenethyl-2,6-diaza-spiro[3.3]hept-2-yl)-ethanone], the EC50 rises from 4.11 nM to 37.7 nM (9.2-fold).

Going from COc1cccc(CN2CC3(C2)CN(C(=O)CN(C)c2ccccc2)C3)c1 [Cpd B075] to COc1cccc(CC(=O)N2CC3(CN(Cc4ncccc4C)C3)C2)c1 [Cpd B416], the EC50 rises from 61.3 nM to 2220 nM (36-fold). The first is the more potent here.

Going from CC(c1ccccc1)N1CC2(CN(C(=O)Cc3ccc(Cl)cc3)C2)C1 (stereo not drawn) [Cpd B065, 2-(4-chlorophenyl)-1-(6-(1-phenylethyl)-2,6-diazaspiro[3.3]heptan-2-yl)ethanone] to CC(Cc1ccccc1)N1CC2(CN(C(=O)Cc3ccc(Cl)cc3)C2)C1 (stereo not drawn) [Cpd B054, 2-(4-chlorophenyl)-1-(6-(1-phenylpropan-2-yl)-2,6-diazaspiro[3.3]heptan-2-yl)ethanone], the EC50 rises from 3.23 nM to 19.2 nM (5.9-fold). The first is the more potent here.

First: O=C(NC1CC(F)(F)C1)N1CC2(CN(Cc3ccc(F)cc3)C2)C1 [Cpd B168]
Second: O=C(NC1CCC(F)(F)CC1)N1CC2(CN(Cc3ccc(F)cn3)C2)C1 [Cpd B205]
The EC50 of the first is 3-fold higher: 780 nM for the first, 263 nM for the second. The second is the more potent here.

First: COc1ccccc1CNC1CC2(C1)CC(Nc1nc(Cc3ccc(Cl)cc3)ns1)C2 (stereo not drawn) [Cpd B305, N-(3-(4-chlorobenzyl)-1,2,4-thiadiazol-5-yl)-N′-(2-methoxybenzyl) spiro[3.3]heptane-2,6-diamine]
Second: COc1ccc(OC)c(CNC2CC3(C2)CC(Nc2nc(Cc4ccc(Cl)cc4)ns2)C3)c1 (stereo not drawn) [Cpd B327, N-(3-(4-chlorobenzyl)-1,2,4-thiadiazol-5-yl)-N′-(2,5-dimethoxybenzyl) spiro[3.3]heptane-2,6-diamine]
The EC50 of the first is 4.5-fold lower: 2.2 nM for the first, 9.9 nM for the second.

Compared with CCc1cc(CC(=O)N2CC3(CN(Cc4ccc(F)cc4)C3)C2)ccn1 [Cpd B415], Cc1cccc(CN2CC3(C2)CN(C(=O)Cc2ccc(F)cc2)C3)n1 [Cpd B017, 2-(4-Fluoro-phenyl)-1-[6-(6-methyl-pyridin-2-ylmethyl)-2,6-diaza-spiro[3.3]hept-2-yl]-ethanone] is 90-fold lower in EC50: 2410 nM for the first, 26.7 nM for the second. The second is the more potent here.

First: COc1cccc(CN2CC3(C2)CN(C(=O)Nc2ccc(OC(F)F)cc2)C3)c1 [Cpd B186]
Second: COc1cccc(CN2CC3(C2)CN(C(=O)OC2CCC(F)(F)CC2)C3)c1 [Cpd B135]
The EC50 of the first is higher: 34 nM for the first, less than 0.19 nM for the second.

Cn1cnc(CN2CC3(C2)CN(C(=O)CC2CCC(F)(F)CC2)C3)c1Cl [Cpd B458] and Cc1[nH]cnc1CN1CC2(C1)CN(C(=O)CC1CCC(F)(F)CC1)C2 [Cpd B124] are within 1.5-fold of each other in EC50: 65.5 nM for the first, 54.4 nM for the second.

First: Cn1ccc(CN2CC3(C2)CN(C(=O)NCc2ccc(F)cc2)C3)n1 [Cpd B406]
Second: Cc1cccnc1CN1CC2(C1)CN(C(=O)Cc1ccc(C(F)(F)F)cc1)C2 [Cpd B078]
The EC50 of the first is 370-fold higher: 4620 nM for the first, 12.6 nM for the second. The second is the more potent here.

First: O=S(=O)(c1ccc(OC(F)(F)F)cc1)N1CC2(CN(Cc3ccc(F)cc3)C2)C1 [Cpd B217]
Second: COc1cc(OC)nc(CN2CC3(C2)CN(C(=O)Cc2ccc(Cl)cc2)C3)n1 [Cpd B036, 2-(4-chlorophenyl)-1-(6-((4,6-dimethoxypyrimidin-2-yl)methyl)-2,6-diazaspiro[3.3]heptan-2-yl)ethanone]
The EC50 of the first is 38-fold lower: 0.46 nM for the first, 17.6 nM for the second. The first is the more potent here.

Clc1ccc(Cc2nsc(NC3CC4(CC(NCc5ccc6c(c5)OCO6)C4)C3)n2)cc1 (stereo not drawn) [Cpd B320, N-(benzo[d][1,3]dioxol-5-ylmethyl)-N′-(3-(4-chlorobenzyl)-1,2,4-thiadiazol-5-yl) spiro[3.3]heptane-2,6-diamine] and Clc1ccc(Cc2nsc(NC3CC4(CC(NCCc5ccccc5Cl)C4)C3)n2)cc1 (stereo not drawn) [Cpd B334, N-(3-(4-chlorobenzyl)-1,2,4-thiadiazol-5-yl)-N′-(2-chlorophenethyl) spiro[3.3]heptane-2,6-diamine] are within 1.5-fold of each other in EC50: 1.4 nM for the first, 2 nM for the second.

First: Cn1ncc(Cl)c1CN1CC2(C1)CN(C(=O)OC1CCC(F)(F)CC1)C2 [Cpd B142, 4,4-difluorocyclohexyl 6-((4-chloro-1-methylpyrazol-5-yl)methyl)-2,6-diazaspiro[3.3]heptane-2-carboxylate]
Second: COc1cccc(CN2CC3(C2)CN(C(=O)CC2CCCC2)C3)c1 [Cpd B455]
The EC50 of the first is 12-fold higher: 864 nM for the first, 74.5 nM for the second. The second is the more potent here.
